The subject of one test is HT29. Put plainly: 72-h MTT cytotoxicity assay, HT29. It is filed as cell-based. To be noted: Homo sapiens, HT-29, read-out: 72-h MTT in vitro IC50 (μM) HT29; Table 1; 72 h. As to the method: (§1) The compounds from the examples above were subjected to a standard cellular proliferation assay using human tumour cell lines obtained from the ATCC (American Type Culture Collection, 10801 University Boulevard, Manessas, Va. 20110-2209, USA). Standard 72-h MTT (thiazolyl blue; 3-[4,5-dimethylthiazol-2-yl]-2,5-diphenyltetrazolium bromide) assays were performed (Haselsberger, K.; Peterson, D. C.; Thomas, D. G.; Darling, J. L. Anti Cancer Drugs 1996, 7, 331-8; Loveland, B. E.; Johns, T. G.; Mackay, I. R.; Vaillant, F.; Wang, Z. X.; Hertzog, P. J. Biochemistry International 1992, 27, 501-10). In short: cells were seeded into 96-well plates according to doubling time and incubated overnight at 37° C. Test compounds were made up in DMSO and a 1/3 dilution series prepared in 100 μL cell media, added to cells (in triplicates) and incubated for 72 ho at 37° C. MTT was made up as a stock of 5 mg/mL in cell media and filter-sterilised. Media was removed from cells followed by a wash with 200 μL PBS. MTT solution was then added at 20 μL per well and incubated in the dark at 37° C. for 4 h. MTT solution was removed and cells again washed with 200 μL PBS. MTT dye was solubilised with 200 μL per well of DMSO with agitation.
A general note: Formazan colour is commonly taken as a measure of viable cells.

Another test deals with Saos-2. Put plainly: 72-h MTT cytotoxicity assay, Saos-2. It is filed as cell-based. To be noted: Homo sapiens, SAOS-2, read-out: 72-h MTT in vitro IC50 (μM) Saos-2; Table 1; 72 h. As to the method:
as §1

Another test relates to A549. Put plainly: 72-h MTT cytotoxicity assay, A549. To be noted: Table 1, 72 h. It is filed as cell-based, human. As to the method: In short: cells were seeded into 96-well plates according to doubling time and incubated overnight at 37° C. Test compounds were made up in DMSO and a 1/3 dilution series prepared in 100 μL cell media, added to cells (in triplicates) and incubated for 72 ho at 37° C. MTT was made up as a stock of 5 mg/mL in cell media and filter-sterilised. Media was removed from cells followed by a wash with 200 μL PBS. MTT solution was then added at 20 μL per well and incubated in the dark at 37° C. for 4 h. MTT solution was removed and cells again washed with 200 μL PBS. MTT dye was solubilised with 200 μL per well of DMSO with agitation.

Another test concerns the target CDK4/cyclin D1 (Homo sapiens, UniProt P11802). Description: Kinase assay CDK4/cyclin D1.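 Further: Enzyme: His6-tagged recombinant human CDK4 produced in baculovirus-infected Sf9 insect cells and purified by metal-chelate chromatography.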
The next test has as its target T1, CDK2/cyclin E (Homo sapiens, UniProt P24941).
T1 construct: His6
Put plainly: Kinase assay CDK2/cyclin E. The test is classed as biochemical. To be noted: Table 1; read-out: Kinase inhibition, IC50 (μM) CDK2/E.

[1] abbreviates: Homo sapiens, A549, read-out: 72-h MTT in vitro IC50 (μM) A549.
[2] abbreviates: read-out: Kinase inhibition, IC50 (μM) CDK4/D1, Table 1.

Read-outs that look alike come from different tables or passages of the source.

Sequence of CDK4/cyclin D1 (P11802 whole entry): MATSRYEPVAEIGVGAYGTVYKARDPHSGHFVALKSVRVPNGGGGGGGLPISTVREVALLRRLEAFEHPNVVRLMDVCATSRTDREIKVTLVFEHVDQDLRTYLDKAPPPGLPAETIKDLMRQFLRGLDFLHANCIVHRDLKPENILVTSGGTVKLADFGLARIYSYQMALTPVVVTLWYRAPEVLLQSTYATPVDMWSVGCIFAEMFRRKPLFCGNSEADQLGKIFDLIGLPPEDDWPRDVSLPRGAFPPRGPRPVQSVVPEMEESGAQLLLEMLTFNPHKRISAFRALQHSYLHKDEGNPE
Sequence of CDK4/cyclin D1 (P24385 whole entry partner): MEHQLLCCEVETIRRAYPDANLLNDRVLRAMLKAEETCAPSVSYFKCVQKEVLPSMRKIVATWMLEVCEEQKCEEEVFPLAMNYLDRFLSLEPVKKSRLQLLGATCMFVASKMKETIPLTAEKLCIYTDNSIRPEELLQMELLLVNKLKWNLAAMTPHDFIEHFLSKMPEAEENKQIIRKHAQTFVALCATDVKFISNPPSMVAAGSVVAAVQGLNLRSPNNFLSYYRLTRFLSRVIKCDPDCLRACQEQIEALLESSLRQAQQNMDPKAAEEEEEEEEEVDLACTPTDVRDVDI

As to `Cc1nc(N)sc1-c1ccnc(Nc2cccc([N+](=O)[O-])c2)n1` [Compound 1, [4-(2-Amino-4-methyl-thiazol-5-yl)-pyrimidin-2-yl]-(3-nitro-phenyl)-amine], the IC50 in the test on HT29 came out at 0.34 µM; with Saos-2, 0.42 µM; in the test on A549 (read-out: 72-h MTT in vitro IC50 (μM) A549), 0.22 µM.

Consider `Cc1nc(N)sc1-c1ccnc(Nc2ccc(N(C)C)cc2)n1` [Compound 2, N-[4-(2-Amino-4-methyl-thiazol-5-yl)-pyrimidin-2-yl]-N^1,N^1-dimethyl-benzene-1,4-diamine], for which the values for the IC50 with HT29, with Saos-2 and with A549 (setting [1]) were 2.88 µM, 1.54 µM and 2.37 µM, respectively.

For the molecule `Cc1nc(N)sc1-c1ccnc(Nc2ccc(Cl)cc2)n1` [Compound 3, [4-(2-Amino-4-methyl-thiazol-5-yl)-pyrimidin-2-yl]-(4-chloro-phenyl)-amine], the IC50 was determined as 4.01 µM in the test with HT29; 0.46 µM against CDK4/cyclin D1; 0.43 µM at CDK2/cyclin E; 2.61 µM in the test on Saos-2; 2.94 µM with A549 (setting [1]).

Consider `Cc1nc(N)sc1-c1ccnc(Nc2ccc(C(F)(F)F)cc2)n1` [Compound 7, [4-(2-Amino-4-methyl-thiazol-5-yl)-pyrimidin-2-yl]-(4-trifluoromethyl-phenyl)-amine], for which the IC50 in the test on HT29 amounted to 1.26 µM; on CDK4/cyclin D1 (setting [2]) it was 5.83 µM; in the test on Saos-2, 0.65 µM; with A549 (setting [1]), 1.03 µM.

Regarding `COc1ccc(Nc2nccc(-c3sc(N)nc3C)n2)cc1` [Compound 8, [4-(2-Amino-4-methyl-thiazol-5-yl)-pyrimidin-2-yl]-(4-methoxy-phenyl)-amine], the IC50 in the test with HT29 amounted to 2.71 µM; against CDK4/cyclin D1 it was 0.42 µM; at CDK2/cyclin E, 0.34 µM; with Saos-2, 1.32 µM; in the test on A549 (setting [1]), 1.55 µM.

`Cc1nc(N)sc1-c1ccnc(Nc2cccc(Cl)c2)n1` [Compound 9, [4-(2-Amino-4-methyl-thiazol-5-yl)-pyrimidin-2-yl]-(3-chloro-phenyl)-amine]: the IC50 with HT29 was 0.79 µM; on CDK4/cyclin D1 (setting [2]) it was 0.07 µM; at CDK2/cyclin E, 0.02 µM; in the test on Saos-2 it was 0.43 µM; with A549 (setting [1]), 0.55 µM.

With `Cc1nc(N)sc1-c1ccnc(Nc2cccc(O)c2)n1` [Compound 13, 3-[4-(2-Amino-4-methyl-thiazol-5-yl)-pyrimidin-2-ylamino]-phenol], the IC50 in the test on HT29 turned out to be 2.87 µM; on CDK4/cyclin D1, 0.45 µM; at CDK2/cyclin E, 0.04 µM; in the test with Saos-2, 0.52 µM; with A549 (setting [1]) it was 0.95 µM.

As to `Cc1nc(N)sc1-c1ccnc(Nc2ccc(I)c([N+](=O)[O-])c2)n1` [Compound 14, [4-(2-Amino-4-methyl-thiazol-5-yl)-pyrimidin-2-yl]-(4-iodo-3-nitro-phenyl)-amine], the IC50 was 0.28 µM in the test on HT29; 0.64 µM on CDK4/cyclin D1; 0.2 µM at CDK2/cyclin E; 0.31 µM in the test with Saos-2; 0.29 µM with A549 (setting [1]).

As to `Cc1nc(C)c(-c2ccnc(Nc3ccc(CCO)cc3)n2)s1` [Compound 21, 2-{4-[4-(2,4-Dimethyl-thiazol-5-yl)-pyrimidin-2-ylamino]-phenyl}-ethanol], the IC50 was 3.61 µM in the test with HT29, 3.28 µM on CDK4/cyclin D1 (setting [2]), 4.37 µM in the test on Saos-2 and 2.79 µM with A549 (setting [1]).

As for `COc1ccc(Nc2nccc(-c3sc(C)nc3C)n2)cc1OC` [Compound 23, (3,4-Dimethoxy-phenyl)-[4-(2,4-dimethyl-thiazol-5-yl)-pyrimidin-2-yl]-amine], the IC50 was 1.17 µM in the test on HT29; 1.06 µM at CDK4/cyclin D1 (setting [2]); 0.03 µM at CDK2/cyclin E; 2.02 µM in the test on Saos-2; 1.57 µM with A549 (setting [1]).

Take `COc1ccc(Nc2nccc(-c3sc(C)nc3C)n2)cc1O` [Compound 24, 5-[4-(2,4-Dimethyl-thiazol-5-yl)-pyrimidin-2-ylamino]-2-methoxy-phenol]: the IC50 with HT29 amounted to 5.47 µM; on CDK4/cyclin D1 (setting [2]), 1.68 µM; with Saos-2, 0.16 µM; with A549 (setting [1]), 0.44 µM.

`COc1ccc(Nc2nccc(-c3sc(C)nc3C)n2)cc1N(C)C` [Compound 28, N^1-[4-(2,4-Dimethyl-thiazol-5-yl)-pyrimidin-2-yl]-4-methoxy-N^3,N^3-dimethyl-benzene-1,3-diamine]: the IC50 with HT29 is 2.23 µM; on CDK4/cyclin D1, 2.88 µM; on CDK2/cyclin E, 0.56 µM; in the test with Saos-2, 1.59 µM; with A549 (setting [1]), 2.07 µM.

For `CNc1nc(C)c(-c2ccnc(Nc3ccc(N(C)C)cc3)n2)s1` [Compound 29, N,N-Dimethyl-N′-[4-(4-methyl-2-methylamino-thiazol-5-yl)-pyrimidin-2-yl]-benzene-1,4-diamine], the IC50 in the test on HT29 stood at 0.6 µM; against CDK4/cyclin D1 it was 0.99 µM; on CDK2/cyclin E, 0.32 µM; in the test on Saos-2, 0.8 µM; in the test with A549 (setting [1]), 0.4 µM.

In the case of `CNc1nc(C)c(-c2ccnc(Nc3ccc(I)c([N+](=O)[O-])c3)n2)s1` [Compound 30, (4-Iodo-3-nitro-phenyl)-[4-(4-methyl-2-methylamino-thiazol-5-yl)-pyrimidin-2-yl]-amine], the IC50 is 1.07 µM in the test with HT29; 0.25 µM against CDK4/cyclin D1; 0.12 µM at CDK2/cyclin E; 2.31 µM in the test with Saos-2; 0.94 µM with A549 (setting [1]).

Take `Cc1c(-c2ccnc(Nc3ccc(O)cc3)n2)sc(=O)n1C` [Compound 31, 5-[2-(4-Hydroxy-phenylamino)-pyrimidin-4-yl]-3,4-dimethyl-3H-thiazol-2-one]: the IC50 turned out to be 0.87 µM with HT29, 0.4 µM in the test on Saos-2 and 0.29 µM in the test with A549 (setting [1]).

Take `Cc1c(-c2ccnc(Nc3cccc([N+](=O)[O-])c3)n2)sc(=O)n1C` [Compound 32, 3,4-Dimethyl-5-[2-(3-nitro-phenylamino)-pyrimidin-4-yl]-3H-thiazol-2-one]: the IC50 in the test on HT29 worked out at 0.01 µM; with Saos-2, 0.1 µM; in the test with A549 (setting [1]), 0.01 µM.

`Cc1c(-c2ccnc(Nc3ccc(F)cc3)n2)sc(=O)n1C` [Compound 34, 5-[2-(4-Fluoro-phenylamino)-pyrimidin-4-yl]-3,4-dimethyl-3H-thiazol-2-one]: the IC50 is 0.38 µM with HT29, 1.27 µM with Saos-2 and 0.51 µM with A549 (setting [1]).

`Cc1cc(Nc2nccc(-c3sc(=O)n(C)c3C)n2)ccc1Cl` [Compound 39, 5-[2-(4-Chloro-3-methyl-phenylamino)-pyrimidin-4-yl]-3,4-dimethyl-3H-thiazol-2-one]: the figures for the IC50 on CDK4/cyclin D1 (setting [2]) and on CDK2/cyclin E were 17.9 µM and 1.18 µM, respectively.

On to `Cc1cc(Nc2nccc(-c3sc(=O)n(C)c3C)n2)ccc1F` [Compound 41, 5-[2-(4-Fluoro-3-methyl-phenylamino)-pyrimidin-4-yl]-3,4-dimethyl-3H-thiazol-2-one], for which the IC50 was found to be 2.19 µM with HT29, 7.98 µM in the test with Saos-2 and 2.41 µM in the test on A549 (setting [1]).

Take `Cc1ccc(Nc2nccc(-c3sc(=O)n(C)c3C)n2)cc1[N+](=O)[O-]` [Compound 42, 3,4-Dimethyl-5-[2-(4-methyl-3-nitro-phenylamino)-pyrimidin-4-yl]-3H-thiazol-2-one]: the IC50 was 0.004 µM with HT29, 0.005 µM in the test on Saos-2 and 0.003 µM in the test with A549 (setting [1]).

As to `Cc1c(-c2ccnc(Nc3ccc(N(C)C)cc3)n2)sc(=O)n1C` [Compound 43, 5-[2-(4-Dimethylamino-phenylamino)-pyrimidin-4-yl]-3,4-dimethyl-3H-thiazol-2-one], the IC50 in the test on HT29 stood at 1.69 µM; against CDK4/cyclin D1 it was 3.82 µM; in the test with Saos-2 it was 3.36 µM; in the test with A549 (setting [1]), 2.2 µM.

In the case of `Cc1nc(N(C)C)sc1-c1ccnc(Nc2cccc([N+](=O)[O-])c2)n1` [Compound 52, [4-(2-Dimethylamino-4-methyl-thiazol-5-yl)-pyrimidin-2-yl]-(3-nitro-phenyl)-amine], the IC50 in the test with HT29 stood at 3.41 µM; against CDK4/cyclin D1 (Kinase inhibition, IC50 (μM) CDK4/D1, Table 1), 10 µM; with Saos-2, 2.57 µM; with A549 (setting [1]), 2.47 µM.

Take `Cc1nc(NCCO)sc1-c1ccnc(Nc2ccc(F)cc2)n1` [Compound 59, 2-{5-[2-(4-Fluoro-phenylamino)-pyrimidin-4-yl]-4-methyl-thiazol-2-ylamino}-ethanol]: the IC50 amounted to 15 µM against CDK4/cyclin D1 and 0.08 µM on CDK2/cyclin E.

Values taken from patent US7427627B2, “N-(4-(4-methylthiazol-5-yl) pyrimidin-2-yl)-N-phenylamines as antiproliferative compounds” (Cyclacel Limited, priority 2001, dated 2008).
